A short description of the data set: physchem. In kind it is physicochemical. Conditions: pH 6.

For `O=C1NC(Cc2ccc(O)cc2)C(=O)NC1Cc1ccc(O)cc1` (stereo not shown) [cYY, 3,6-bis(4-hydroxybenzyl)piperazine-2,5-dione], the pKa was 9.9 ± 0.02.

As usually defined, the pKa is the pH at which an ionisable group is half protonated. The low end stands for a stronger acid or weaker base, the high end for a weaker acid or stronger base.

The record behind these values is article PMC5765751 (Journal of the American Chemical Society, 2017).
